Results published in US20250353852A1, “COMPOUNDS AND COMPOSITIONS THAT INHIBIT PIKFYVE” (Kineta, Inc., priority 2021, published 2025).

Target: full-length human PIKFYVE (Homo sapiens (Human), UniProt Q9Y2I7, L932S/Q1183K/Q995L/S1033A/S696N/T998S)
Experiment: PIKfyve biochemical assay (ADP-Glo Kinase assay, Carna Biosciences)
Details: class symbols
Description: PIKfyve Biochemical Assay. The biochemical […] inhibition assays were run by Carna Biosciences according to proprietary methodology based on the Promega […] Kinase assay. […] NP_055855.2] was expressed as N-terminal GST-fusion protein (265 kDa) using baculovirus expression system. GST-PIKFYVE was purified by using glutathione sepharose chromatography and used in an ADP-GloTM Kinase assay (Promega). Reactions were set up by adding the test compound solution, substrate solution, ATP solution and kinase solution, each at 4× final concentrations. Reactions were prepared with assay buffer (50 mM MOPS, 1 mM DTT, pH7.2), mixed, and incubated in black 384 well polystyrene plates for 1 hour at room temperature. ADP-Glo^TM reagent was then added for 40 minutes, followed by kinase detection reagent for an additional 40 minutes. The kinase activity was evaluated by detecting relative light units on a luminescence plate reader. […] IC50 values were calculated from concentration vs % inhibition curves by fitting to a four-parameter logistic curve. […] The biochemical […] inhibition assays were run by Carna Biosciences according to proprietary methodology based on the Promega ADP-GloTM Kinase assay. […] GST-PIKFYVE was purified by using glutathione sepharose chromatography and used in an ADP-GIoTM Kinase assay (Promega). Reactions were set up by adding the test compound solution, substrate solution, ATP solution and kinase solution, each at 4× final concentrations. Reactions were prepared with assay buffer (50 mM MOPS, 1 mM DTT, pH7.2), mixed, and incubated in black 384 well polystyrene plates for 1 hour at room temperature. ADP-GIoTM reagent was then added for 40 minutes, followed by kinase detection reagent for an additional 40 minutes. The kinase activity was evaluated by detecting relative light units on a luminescence plate reader. […] IC50 values were calculated from concentration vs % inhibition curves by fitting to a four-parameter logistic curve. […] The same compounds were also tested in both FAB1 and PIKFYVE TDP-43 yeast models.

Sequence of full-length human PIKFYVE (Q9Y2I7 whole entry S696N/L932S/Q995L/T998S/S1033A/Q1183K): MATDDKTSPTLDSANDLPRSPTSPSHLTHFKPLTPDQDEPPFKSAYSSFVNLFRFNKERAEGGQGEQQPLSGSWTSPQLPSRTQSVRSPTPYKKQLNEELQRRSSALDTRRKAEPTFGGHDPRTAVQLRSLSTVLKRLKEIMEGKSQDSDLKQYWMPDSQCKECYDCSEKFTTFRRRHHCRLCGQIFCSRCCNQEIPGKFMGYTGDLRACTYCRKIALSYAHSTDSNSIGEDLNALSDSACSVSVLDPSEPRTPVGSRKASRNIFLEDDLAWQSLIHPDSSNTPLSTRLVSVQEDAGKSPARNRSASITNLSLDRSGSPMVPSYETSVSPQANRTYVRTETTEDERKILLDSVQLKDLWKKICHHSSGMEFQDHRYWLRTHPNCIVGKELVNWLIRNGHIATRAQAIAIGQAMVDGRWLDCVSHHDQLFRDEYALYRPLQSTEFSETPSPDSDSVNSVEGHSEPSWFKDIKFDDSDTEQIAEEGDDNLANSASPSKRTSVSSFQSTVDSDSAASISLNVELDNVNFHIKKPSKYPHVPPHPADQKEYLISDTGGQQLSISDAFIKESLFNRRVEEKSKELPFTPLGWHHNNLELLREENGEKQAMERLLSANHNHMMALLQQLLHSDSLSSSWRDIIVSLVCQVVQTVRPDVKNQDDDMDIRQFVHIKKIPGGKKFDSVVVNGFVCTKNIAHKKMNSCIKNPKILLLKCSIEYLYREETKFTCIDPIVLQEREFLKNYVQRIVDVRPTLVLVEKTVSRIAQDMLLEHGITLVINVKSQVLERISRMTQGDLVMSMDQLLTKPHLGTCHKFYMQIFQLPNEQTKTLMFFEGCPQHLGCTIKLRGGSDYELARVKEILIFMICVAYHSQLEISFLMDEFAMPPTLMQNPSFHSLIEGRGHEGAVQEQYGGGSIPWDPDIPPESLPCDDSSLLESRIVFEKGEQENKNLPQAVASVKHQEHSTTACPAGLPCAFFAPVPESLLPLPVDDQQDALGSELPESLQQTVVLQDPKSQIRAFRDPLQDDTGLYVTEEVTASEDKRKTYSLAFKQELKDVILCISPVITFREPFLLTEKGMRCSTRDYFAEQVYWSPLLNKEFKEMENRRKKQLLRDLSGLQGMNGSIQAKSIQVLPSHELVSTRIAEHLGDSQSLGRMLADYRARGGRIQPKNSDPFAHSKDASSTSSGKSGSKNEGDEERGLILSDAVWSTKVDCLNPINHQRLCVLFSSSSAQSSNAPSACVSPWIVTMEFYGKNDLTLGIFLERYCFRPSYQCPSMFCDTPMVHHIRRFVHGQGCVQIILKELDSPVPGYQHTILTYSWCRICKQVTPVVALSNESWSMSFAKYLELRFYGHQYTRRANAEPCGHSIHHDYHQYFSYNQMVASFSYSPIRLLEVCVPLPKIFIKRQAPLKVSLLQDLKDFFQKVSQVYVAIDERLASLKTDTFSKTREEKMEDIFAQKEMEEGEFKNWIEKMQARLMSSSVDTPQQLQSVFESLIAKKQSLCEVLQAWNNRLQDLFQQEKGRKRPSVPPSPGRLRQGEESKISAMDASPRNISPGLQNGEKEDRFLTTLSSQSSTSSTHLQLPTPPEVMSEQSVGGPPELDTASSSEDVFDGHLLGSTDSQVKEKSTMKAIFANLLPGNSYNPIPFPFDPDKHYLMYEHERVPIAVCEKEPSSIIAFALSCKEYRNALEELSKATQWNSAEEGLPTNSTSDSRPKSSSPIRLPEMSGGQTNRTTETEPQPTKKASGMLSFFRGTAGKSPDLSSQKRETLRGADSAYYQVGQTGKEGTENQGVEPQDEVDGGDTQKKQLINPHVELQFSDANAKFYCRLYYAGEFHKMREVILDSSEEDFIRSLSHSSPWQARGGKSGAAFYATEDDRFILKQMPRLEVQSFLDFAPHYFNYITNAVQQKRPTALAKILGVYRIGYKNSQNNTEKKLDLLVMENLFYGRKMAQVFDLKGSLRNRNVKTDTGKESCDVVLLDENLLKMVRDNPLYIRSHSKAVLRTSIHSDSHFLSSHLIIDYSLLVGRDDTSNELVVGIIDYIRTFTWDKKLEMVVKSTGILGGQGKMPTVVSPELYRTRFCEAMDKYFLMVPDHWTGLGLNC

First: 4-(5-(3-(2-fluorophenyl)-1H-pyrazol-1-yl)-2-(tetrahydrofuran-2-yl)pyrazolo[1,5-a]pyrimidin-7-yl)morpholine [Compound 91]
Second: 4-(5-(3-(3-fluorophenyl)-1H-pyrazol-1-yl)-2-(pyridin-4-yl)pyrazolo[1,5-a]pyrimidin-7-yl)morpholine [Compound 64]
The IC50 of the first is higher: 100 to 1000 nM for the first, 10 to 100 nM for the second. The second is the more potent here.

With `c1cc(-c2cc3nc(-n4ccc(C5CCCNC5)n4)cc(N4CCOCC4)n3n2)ccn1` (single isomer, unassigned) [Compound 75, 4-(5-(3-(piperidin-3-yl)-1H-pyrazol-1-yl)-2-(pyridin-4-yl)pyrazolo[1,5-a]pyrimidin-7-yl)morpholine] the IC50 was 100 to 1000 nM.
First: c1cc(-c2cc3nc(-n4ccc(C5CCCNC5)n4)cc(N4CCOCC4)n3n2)ccn1 (single isomer, unassigned) [Compound 76, 4-(5-(3-(piperidin-3-yl)-1H-pyrazol-1-yl)-2-(pyridin-4-yl)pyrazolo[1,5-a]pyrimidin-7-yl)morpholine]
Second: Cc1cccc(/C=N/Nc2cc(N3CC4CC3CO4)n3nc(-c4ccncc4)cc3n2)c1 (stereo not drawn) [Compound 1, (E)-5-(5-(2-(3-methylbenzylidene)hydrazinyl)-2-(pyridin-4-yl)pyrazolo[1,5-a]pyrimidin-7-yl)-2-oxa-5-azabicyclo[2.2.1]heptane]
The IC50 of the first is higher: 100 to 1000 nM for the first, 10 to 100 nM for the second. The second is the more potent here.

Compared with `Cc1cccc(CCOc2cc(N3CCOCC3)n3nc(-c4ccncc4)cc3n2)c1` [Compound 2, 4-(5-(3-methylphenethoxy)-2-(pyridin-4-yl)pyrazolo[1,5-a]pyrimidin-7-yl)morpholine], `O=c1ccc(-c2ccccc2)nn1-c1cc(N2CCOCC2)n2nc(-c3ccncc3)cc2n1` [Compound 3, 2-(7-morpholino-2-(pyridin-4-yl)pyrazolo[1,5-a]pyrimidin-5-yl)-6-phenylpyridazin-3(2H)-one] is lower in IC50: 1000 to 10000 nM for the first, 100 to 1000 nM for the second.

Compared with `O=c1c(Br)c(Br)cnn1-c1cc(N2CCOCC2)n2nc(-c3ccncc3)cc2n1` [Compound 4, 4,5-dibromo-2-(7-morpholino-2-(pyridin-4-yl)pyrazolo[1,5-a]pyrimidin-5-yl)pyridazin-3(2H)-one], `O=c1c(-c2ccccc2)ccnn1-c1cc(N2CCOCC2)n2nc(-c3ccncc3)cc2n1` [Compound 5, 2-(7-morpholino-2-(pyridin-4-yl)pyrazolo[1,5-a]pyrimidin-5-yl)-4-phenylpyridazin-3(2H)-one] is lower in IC50: 1000 to 10000 nM for the first, 100 to 1000 nM for the second.

`O=c1c(-c2ccccc2)c(-c2ccccc2)cnn1-c1cc(N2CCOCC2)n2nc(-c3ccncc3)cc2n1` [Compound 6, 2-(7-morpholino-2-(pyridin-4-yl)pyrazolo[1,5-a]pyrimidin-5-yl)-4,5-diphenylpyridazin-3(2H)-one] and `COc1cnn(-c2cc(N3CCOCC3)n3nc(-c4ccncc4)cc3n2)c(=O)c1Br` [Compound 7, 4-bromo-5-methoxy-2-(7-morpholino-2-(pyridin-4-yl)pyrazolo[1,5-a]pyrimidin-5-yl)pyridazin-3(2H)-one] fall in the same range of IC50: 1000 to 10000 nM for the first, 1000 to 10000 nM for the second.

First: c1cncc(-n2nccc2-c2cc(N3CCOCC3)n3nc(-c4ccncc4)cc3n2)c1 [Compound 12, 4-(5-(1-(pyridin-3-yl)-1H-pyrazol-5-yl)-2-(pyridin-4-yl)pyrazolo[1,5-a]pyrimidin-7-yl)morpholine]
Second: c1cncc(-n2ccc(-c3cc(N4CCOCC4)n4nc(-c5ccncc5)cc4n3)n2)c1 [Compound 13, 4-(5-(1-(pyridin-3-yl)-1H-pyrazol-3-yl)-2-(pyridin-4-yl)pyrazolo[1,5-a]pyrimidin-7-yl)morpholine]
The IC50 of the first is higher: 1000 to 10000 nM for the first, 10 to 100 nM for the second. The second is the more potent here.

First: c1ccc(-n2ccc(-c3cc(N4CCOCC4)n4nc(-c5ccncc5)cc4n3)n2)cc1 [Compound 14, 4-(5-(1-phenyl-1H-pyrazol-3-yl)-2-(pyridin-4-yl)pyrazolo[1,5-a]pyrimidin-7-yl)morpholine]
Second: CC(C)(C)OC(=O)N1CCCC(c2cn(-c3cc(N4CCOCC4)n4nc(-c5ccncc5)cc4n3)cn2)C1 (stereo not drawn) [Compound 15, tert-butyl 3-(1-(7-morpholino-2-(pyridin-4-yl)pyrazolo[1,5-a]pyrimidin-5-yl)-1H-imidazol-4-yl)piperidine-1-carboxylate]
The IC50 of the first is lower: 10 to 100 nM for the first, 1000 to 10000 nM for the second.

`c1cc(-c2cc3nc(-n4cnc(C5CCCNC5)c4)cc(N4CCOCC4)n3n2)ccn1` (stereo not drawn) [Compound 16, 4-(5-(4-(piperidin-3-yl)-1H-imidazol-1-yl)-2-(pyridin-4-yl)pyrazolo[1,5-a]pyrimidin-7-yl)morpholine] and `C1=C(c2cn(-c3cc(N4CCOCC4)n4nc(-c5ccncc5)cc4n3)cn2)CNCC1` [Compound 17, 4-(2-(pyridin-4-yl)-5-(4-(1,2,5,6-tetrahydropyridin-3-yl)-1H-imidazol-1-yl)pyrazolo[1,5-a]pyrimidin-7-yl)morpholine] fall in the same range of IC50: 1000 to 10000 nM for the first, 1000 to 10000 nM for the second.

`CN1CCCC(c2cn(-c3cc(N4CCOCC4)n4nc(-c5ccncc5)cc4n3)cn2)C1` (stereo not drawn) [Compound 18, 4-(5-(4-(1-methylpiperidin-3-yl)-1H-imidazol-1-yl)-2-(pyridin-4-yl)pyrazolo[1,5-a]pyrimidin-7-yl)morpholine] and `CN1CC(c2cc(N3CCOCC3)n3nc(-c4ccncc4)cc3n2)CC1c1ccccc1` (stereo not drawn) [Compound 19, 4-(5-(1-methyl-5-phenylpyrrolidin-3-yl)-2-(pyridin-4-yl)pyrazolo[1,5-a]pyrimidin-7-yl)morpholine] fall in the same range of IC50: 1000 to 10000 nM for the first, 1000 to 10000 nM for the second.

Compared with `O=C1C(c2ccccc2)CCN1c1cc(N2CCOCC2)n2nc(-c3ccncc3)cc2n1` (stereo not drawn) [Compound 23, 1-(7-morpholino-2-(pyridin-4-yl)pyrazolo[1,5-a]pyrimidin-5-yl)-3-phenylpyrrolidin-2-one], `O=C1C(c2ccccc2)CCCN1c1cc(N2CCOCC2)n2nc(-c3ccncc3)cc2n1` (stereo not drawn) [Compound 24, 1-(7-morpholino-2-(pyridin-4-yl)pyrazolo[1,5-a]pyrimidin-5-yl)-3-phenylpiperidin-2-one] is higher in IC50: 100 to 1000 nM for the first, 1000 to 10000 nM for the second. The first is the more potent here.

`O=C1CC(c2ccccc2)CN1c1cc(N2CCOCC2)n2nc(-c3ccncc3)cc2n1` (stereo not drawn) [Compound 25, 1-(7-morpholino-2-(pyridin-4-yl)pyrazolo[1,5-a]pyrimidin-5-yl)-4-phenylpyrrolidin-2-one] and `O=C1CCC(c2ccccc2)CN1c1cc(N2CCOCC2)n2nc(-c3ccncc3)cc2n1` (stereo not drawn) [Compound 26, 1-(7-morpholino-2-(pyridin-4-yl)pyrazolo[1,5-a]pyrimidin-5-yl)-5-phenylpiperidin-2-one] fall in the same range of IC50: 1000 to 10000 nM for the first, 1000 to 10000 nM for the second.

`CN1CCN(c2cc(N3CCOCC3)n3nc(-c4ccncc4)cc3n2)C(=O)C1c1ccccc1` (stereo not drawn) [Compound 27, 4-methyl-1-(7-morpholino-2-(pyridin-4-yl)pyrazolo[1,5-a]pyrimidin-5-yI)-3-phenylpiperazin-2-one] and `CN1CCN(c2cc(N3CCOCC3)n3nc(-c4ccncc4)cc3n2)C(Cc2ccccc2)C1=O` (stereo not drawn) [Compound 28, 3-benzyl-1-methyl-4-(7-morpholino-2-(pyridin-4-yl)pyrazolo[1,5-a]pyrimidin-5-yl)piperazin-2-one] fall in the same range of IC50: 1000 to 10000 nM for the first, 1000 to 10000 nM for the second.

Compared with `Fc1cc(N2CCOCC2)n2nc(-c3ccncc3)cc2n1` [Compound 29, 4-(5-fluoro-2-(pyridin-4-yl)pyrazolo[1,5-a]pyrimidin-7-yl)morpholine], `c1ccc(C2CN(c3cc(N4CCOCC4)n4nc(-c5ccncc5)cc4n3)C2)cc1` [Compound 32, 4-(5-(3-phenylazetidin-1-yl)-2-(pyridin-4-yl)pyrazolo[1,5-a]pyrimidin-7-yl)morpholine] is higher in IC50: 100 to 1000 nM for the first, 1000 to 10000 nM for the second.

`c1ccc(C2CCN(c3cc(N4CCOCC4)n4nc(-c5ccncc5)cc4n3)C2)cc1` (stereo not drawn) [Compound 33, 4-(5-(3-phenylpyrrolidin-1-yl)-2-(pyridin-4-yl)pyrazolo[1,5-a]pyrimidin-7-yl)morpholine] and `c1ccc(C2CCCN(c3cc(N4CCOCC4)n4nc(-c5ccncc5)cc4n3)C2)cc1` (stereo not drawn) [Compound 34, 4-(5-(3-phenylpiperidin-1-yl)-2-(pyridin-4-yl)pyrazolo[1,5-a]pyrimidin-7-yl)morpholine] fall in the same range of IC50: 1000 to 10000 nM for the first, 1000 to 10000 nM for the second.

`c1ccc(C2CN(c3cc(N4CCOCC4)n4nc(-c5ccncc5)cc4n3)CCN2)cc1` (stereo not drawn) [Compound 35, 4-(5-(3-phenylpiperazin-1-yl)-2-(pyridin-4-yl)pyrazolo[1,5-a]pyrimidin-7-yl)morpholine] and `c1ccc(CC2COCCN2c2cc(N3CCOCC3)n3nc(-c4ccncc4)cc3n2)cc1` (stereo not drawn) [Compound 36, 3-benzyl-4-(7-morpholino-2-(pyridin-4-yl)pyrazolo[1,5-a]pyrimidin-5-yl)morpholine] fall in the same range of IC50: 1000 to 10000 nM for the first, 1000 to 10000 nM for the second.

`CN1C(=O)CN(c2cc(N3CCOCC3)n3nc(-c4ccncc4)cc3n2)CC1c1ccccc1` (stereo not drawn) [Compound 37, 1-methyl-4-(7-morpholino-2-(pyridin-4-yl)pyrazolo[1,5-a]pyrimidin-5-yl)-6-phenylpiperazin-2-one] and `CN1CCN(c2cc(N3CCOCC3)n3nc(-c4ccncc4)cc3n2)CC1c1ccccc1` (stereo not drawn) [Compound 38, 4-(5-(4-methyl-3-phenylpiperazin-1-yl)-2-(pyridin-4-yl)pyrazolo[1,5-a]pyrimidin-7-yl)morpholine] fall in the same range of IC50: 1000 to 10000 nM for the first, 1000 to 10000 nM for the second.
